Publication PMC9502993 (Pharmaceuticals, 2022)
Where “and” joins values, the source holds several entries; their conditions need not be identical. Identical values can stand only once. Like-named read-outs stand apart in the source and are kept apart here.

Columns and labels:
T cells = tested on: T cells; design: method as in PMID 35336926, PMID 1360266; settings: T cells ref 9, 34; cited from earlier work
HEK293T cells [1] = assay: cAMP assay (GloSensor luciferase), GPCR off-target; settings: silvestrol 10, 50, 100 nM
HepG2 cells [2] = assay: In Vitro Micronuclei Plus assay (flow cytometry)
primary monocytes = tested on: primary monocytes; design: method as in PMID 35336926; settings: primary monocytes ref 9; cited from earlier work
Caco-2 cell barrier [3] = assay: Transport assay across cell barrier
Caco-2 cells [4] = assay: Cellular uptake assay (LC-MS/MS)
primary dendritic cells = tested on: primary dendritic cells; design: method as in PMID 35336926; settings: primary dendritic cells ref 9; cited from earlier work
Calu-3 cells [5] = assay: Cellular uptake assay (LC-MS/MS)
[6] = Cell viability assay (Orangu WST-8, formazan-based); settings: human, HEK293T cells
HEK293T cells [7] = assay: as above; settings: 48 h
HEK293T cells [8] = assay: Ca2+-release assay (Fluo-8-AM), GPCR off-target; assay type: cell-based; settings: silvestrol 10, 50, 100 nM
Experimental: Next, 50,000 HEK293T cells were seeded in a 96-well poly-D-lysine-coated plate and incubated at 37 °C for 24 h. Cells were incubated with 4 µM Fluo-8-AM in HBSS for 1 h at 37 °C. After 1 h, the Fluo-8/HBSS was replaced by 100 µL HBSS. Five images per second were taken using an ImageXpress Micro Confocal High Content Imaging System (Molecular Device, San Jose, CA, USA). […] An image was taken every second for the next 20 s. The MetaXpress Software Version 6.7.1.157 (San Jose, CA, USA) was used to analyze the data. A threshold of fluorescence intensity was defined using cells before treatment and all cells with a fluorescence signal above the threshold level were counted and related to all cells.

HeLa = HeLa ref 6; cited from earlier work
[9] = Stability assay in human liver microsomes; assay type: in vitro ADME; settings: pH 7.4, human liver microsomes 0.5 mg/mL, 100 nM
Experimental: The reaction was started with 1 mM NADPH diluted in potassium phosphate buffer. As control, samples without NAPDH were used. After various time points (0 h, 1 h, 2 h, 4 h), the reaction was stopped by adding ice-cold acetonitrile. The samples were centrifuged (5 min, 4 °C, 10,000× g) and supernatant was stored at −80 °C until the remaining drug concentration was determined by LC-MS/MS as described in detail below. The concentrations of the drugs were plotted against time and the elimination constant (k) was calculated from the slope (m):m = −k
Equation to determine half-life:T1/2 = 0.693/K
Equation to determine intrinsic clearance:Cl = Ln(2) × 1000/T1/2/protein concentration

[10] = mice, formulated in hydroxypropyl-β-cyclodextrin, intraperitoneal ref 30; cited from earlier work
[11] = tested on: lung cancer cell line A549; design: method as in PMID 31931103; settings: A549 ref 5; cited from earlier work
[12] = tested on: non-transformed primary cells; settings: several non-transformed primary cells ref 6, 20, 30; cited from earlier work
[13] = tested on: various viruses, such as corona- and Ebolaviruses; settings: cited from earlier work
[14] = tested on: lung fibroblast cell line MRC-5; design: method as in PMID 31931103; settings: MRC-5 ref 5; cited from earlier work
Caco-2 cell barrier [15] = assay: Cell barrier integrity (TEER, cellZscope2); assay type: cell-based; settings: 50 and 100 nM, 20 h
Calu-3 cell barrier = assay: Transport assay across cell barrier
primary M1 macrophages = tested on: primary M1 macrophages; design: method as in PMID 35336926; settings: primary M1 macrophages ref 9; cited from earlier work
Calu-3 cells [16] = assay: Cell viability assay (Orangu WST-8, formazan-based)
Chikungunya virus = tested on: Chikungunya virus; design: method as in PMID 31931103; settings: Chikungunya virus ref 5; read-out: EC50 (50% reduction of the virus titer); cited from earlier work
P-glycoprotein = target: T1, P-glycoprotein (Homo sapiens, UniProt P08183); settings: cited from earlier work
T1 construct: endogenous in cells; host or cells: Caco-2 (high P-gp), Calu-3 (low P-gp)
T1 sequence (P08183 whole entry): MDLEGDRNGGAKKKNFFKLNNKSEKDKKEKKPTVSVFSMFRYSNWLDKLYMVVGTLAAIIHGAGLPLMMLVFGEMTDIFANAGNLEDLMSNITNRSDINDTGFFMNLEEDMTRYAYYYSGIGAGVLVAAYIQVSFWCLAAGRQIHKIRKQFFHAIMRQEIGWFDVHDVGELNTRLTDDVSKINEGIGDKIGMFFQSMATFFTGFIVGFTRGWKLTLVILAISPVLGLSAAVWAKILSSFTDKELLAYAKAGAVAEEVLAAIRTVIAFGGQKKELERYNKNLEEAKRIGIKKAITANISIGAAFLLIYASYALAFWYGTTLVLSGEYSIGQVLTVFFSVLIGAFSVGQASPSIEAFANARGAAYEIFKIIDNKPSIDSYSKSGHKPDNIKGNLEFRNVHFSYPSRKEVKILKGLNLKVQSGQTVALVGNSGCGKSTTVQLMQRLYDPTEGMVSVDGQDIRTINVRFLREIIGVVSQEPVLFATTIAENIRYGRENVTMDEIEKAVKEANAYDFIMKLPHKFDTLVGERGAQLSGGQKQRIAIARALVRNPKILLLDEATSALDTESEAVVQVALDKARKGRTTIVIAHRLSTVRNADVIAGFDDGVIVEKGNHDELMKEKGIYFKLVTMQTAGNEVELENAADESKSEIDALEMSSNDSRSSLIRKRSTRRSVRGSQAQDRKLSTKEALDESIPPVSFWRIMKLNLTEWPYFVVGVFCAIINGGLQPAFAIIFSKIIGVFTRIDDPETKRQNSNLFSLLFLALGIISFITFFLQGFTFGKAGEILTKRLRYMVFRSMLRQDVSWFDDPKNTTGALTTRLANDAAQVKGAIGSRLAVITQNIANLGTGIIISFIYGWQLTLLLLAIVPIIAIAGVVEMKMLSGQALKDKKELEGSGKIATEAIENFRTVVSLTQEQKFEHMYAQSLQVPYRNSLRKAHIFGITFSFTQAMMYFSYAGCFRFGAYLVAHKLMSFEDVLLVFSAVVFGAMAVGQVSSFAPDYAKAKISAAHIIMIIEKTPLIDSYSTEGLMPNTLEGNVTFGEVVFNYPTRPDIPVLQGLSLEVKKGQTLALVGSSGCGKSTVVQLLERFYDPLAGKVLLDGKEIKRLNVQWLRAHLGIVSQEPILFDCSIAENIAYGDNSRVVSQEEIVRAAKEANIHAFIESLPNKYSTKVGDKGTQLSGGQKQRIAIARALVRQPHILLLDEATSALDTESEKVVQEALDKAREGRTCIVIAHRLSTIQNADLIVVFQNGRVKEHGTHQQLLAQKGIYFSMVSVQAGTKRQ

HepG2 cells [17] = assay: Cell viability assay (Orangu WST-8, formazan-based)
Experimental: For the cell viability assay, HepG2 cells were incubated with various
normalized to the absorbance of the respective DMSO value to calculate cell viability. The experiments were performed in biological
(1 picture or pasted object on this page, not shown here)

[18] = tested on: hepatocellular carcinoma cell line Huh-7; settings: Huh-7 ref 6; cited from earlier work
HEK293T cells [19] = assay: IP3 assay, GPCR off-target; assay type: cell-based; settings: silvestrol
primary M2 macrophages = tested on: primary M2 macrophages; design: method as in PMID 35336926; settings: primary M2 macrophages ref 9; read-out: CC50 (no cytotoxic effects up to); cited from earlier work
[20] = Cell viability assay (Orangu WST-8, formazan-based); settings: human, Caki-2 cells
Caki-2 cells = assay: as above; settings: 48 h
HCoV-229E = HCoV-229E ref 6; read-out: EC50 (50% reduction of the virus titer); cited from earlier work
Caco-2 cells [21] = assay: Cell viability assay (Orangu WST-8, formazan-based); settings: for effect on cell viability: 48 h
MERS-CoV = MERS-CoV ref 6; read-out: EC50 (50% reduction of the virus titer); cited from earlier work
[22] = tested on: colon cancer cell line HT29; settings: HT29 ref 17; cited from earlier work

For `COC(=O)[C@H]1[C@@H](O)[C@@]2(O)c3c(OC)cc(O[C@@H]4O[C@@H]([C@H](O)CO)CO[C@H]4OC)cc3O[C@@]2(c2ccc(OC)cc2)[C@@H]1c1ccccc1` [silvestrol], the “cytotoxicity (no cytotoxic effects up to)” value (T cells) is given as greater than 100 nM, the “induction of cAMP synthesis” value (HEK293T cells [1]) is given as “did not significantly induce” and the “clastogenic effects (micronuclei)” value (HepG2 cells [2]; 50 nM) is given as “clastogenic effects”. For the same molecule, the “aneugenic effects (hypodiploid cells)” value (HepG2 cells [2]; silvestrol concentrations up to 50 nM) was “no aneugenic effects”, the CC50 (primary monocytes) was 29 nM and the transport rate (Caco-2 cell barrier [3]; 50 nM, 24 h) was 1.3%. For the same molecule, the transport rate (Caco-2 cell barrier [3]; 100 nM, 4 h) was 0.5%, the transport rate (Caco-2 cell barrier [3]; 100 nM, 24 h) was 1.9% and the “cellular uptake (maximum)” value (Caco-2 cells [4]; 25 nM, 2 and 4 h) was “about 2.5 pg/µg protein”. The “uptake related to used silvestrol” value (Caco-2 cells [4]; 25 nM, at maximum) was “≈ 1.3%”, the “change of intracellular silvestrol level on inhibition of P-glycoprotein” value (Caco-2 cells [4]; preincubated with 1 µM cyclosporine 60 min) was “leads to an increase in intracellular silvestrol levels” and the “cytotoxicity (no cytotoxic effects up to)” value (primary dendritic cells) was greater than 100 nM. The “uptake related to used amount of silvestrol” value (Calu-3 cells [5]; at maximum) was “≈ 3.7%”, the “cellular uptake (maximum)” value (Calu-3 cells [5]; concentration- and time-dependent) was “about 7.7 pg/µg protein” and the CC50 at 48 h [6] was 16 nM. For the same molecule, the CC50 (HEK293T cells [7]) was 15.9 nM, the “induction of Ca2+-release” value (HEK293T cells [8]) was “did not significantly induce” and the CC50 (HeLa) was 5 nM. The half-life at 100 nM [9] was 11.6 ± 1.2 h, the microsomal CLint at 100 nM ([9]; read-out: intrinsic clearance) was 1.7 ± 0.5 µL/min/mg and the intraperitoneal systemic availability [10] was 100%. The CC50 [11] was 9.42 nM, the cytotoxicity [12] was “no major cytotoxicity” and the “reduction of virus titers” value [13] was “up to 4 log phases”. For the same molecule, the EC50 ([13]; read-out: EC50 for inhibition of virus replication) was 1 to 100 nM, the EC50 ([13]; various viruses, such as corona- and Ebolaviruses (abstract), read-out: EC50) was roughly 5 nM and the “cytotoxicity (no cytotoxicity up to)” value [14] was greater than 50 µM. The “effect on TEER readings (cell barrier integrity)” value (Caco-2 cell barrier [15]) was “reduced TEER readings only slightly”, the transport rate (Calu-3 cell barrier; 50 nM, 24 h) was 7.8% and the transport rate (Calu-3 cell barrier; 100 nM, 4 h) was 0.8%. For the same molecule, the transport rate (Calu-3 cell barrier; 100 nM, 24 h) was 10.6%, the CC50 (primary M1 macrophages) was 45.6 nM and 46 nM and the “effect on cell viability” value (Calu-3 cells [16]; 48 h) was “did not reduce viability below 50%”. For the same molecule, the reduction of viability (Calu-3 cells [16]; concentrations up to 1000 nM) was “about 50%”, the EC50 (Chikungunya virus) was roughly 5 nM and the “substrate of P-glycoprotein” value (P-glycoprotein) was “substrate”. The “effect on cell viability” value (HepG2 cells [17]; 48 h) was “only minor effects”, the reduction of viability (HepG2 cells [17]; concentrations up to 1000 nM) was “about 50%” and the CC50 [18] was 30 nM. The “induction of IP3 synthesis” value (HEK293T cells [19]) was “did not significantly induce”, the CC50 (primary M2 macrophages) was greater than 100 nM and the CC50 at 48 h [20] was 37 nM. The CC50 (Caki-2 cells) was 37.2 nM, the EC50 (HCoV-229E) was roughly 5 nM and the “effect on cell viability” value (Caco-2 cells [21]) was “did not reduce viability below 50%”. For the same molecule, the “effect on cell viability” value (Caco-2 cells [21]; listed as Silvestrol) was “only minor effects”, the reduction of viability (Caco-2 cells [21]; concentrations up to 1000 nM) was “about 50%” and the “change of cytotoxicity on inhibition of P-glycoprotein” value (Caco-2 cells [21]; preincubated with 1 µM cyclosporine 60 min, then 48 h) was “increased the cytotoxic potential”. The EC50 (MERS-CoV) was roughly 5 nM and the CC50 [22] was 0.7 nM.
